Test results from ChEMBL document CHEMBL1201862, “PubChem BioAssay data set” (2004).
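Results reflect a 48-hour exposure of cells in 96-well plates to compound at five concentrations. The concentration for 50% growth inhibition is given as GI50.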 The source made the active and inactive calls. No stated cut-off is given here; in the data, active = GI50 up to about 1.1 µM and inactive = higher.

How the values were obtained:
Test in all cases: DTP human tumour cell line panel, 48 h
RPMI-8226 = test system: RPMI-8226
SK-MEL-5 = test system: SK-MEL-5
SNB-75 = test system: SNB-75
SNB-19 = test system: SNB-19
HCC 2998 = test system: HCC 2998
KM12 = test system: KM12
OVCAR-4 = test system: OVCAR-4
SK-MEL-2 = test system: SK-MEL-2
ACHN = test system: ACHN
SW-620 = test system: SW-620
MOLT-4 = test system: MOLT-4
UACC-257 = test system: UACC-257
HOP-92 = test system: HOP-92
U-251 = test system: U-251
UO-31 = test system: UO-31
MCF7 = test system: MCF7
BT-549 = test system: BT-549
CAKI-1 = test system: CAKI-1
DU-145 = test system: DU-145

Measured: GI50

C=CCc1cc(-c2cc(CC=C)c(O)c(CNC)c2)cc(CNC)c1O
inactive: RPMI-8226 20.7 µM | SK-MEL-5 16.1 µM | SNB-75 11 µM | SNB-19 13.3 µM | HCC 2998 16.3 µM | KM12 16.6 µM | OVCAR-4 16.5 µM | SK-MEL-2 18.6 µM | ACHN 17.8 µM | SW-620 17.3 µM | MOLT-4 10.9 µM | UACC-257 16 µM | HOP-92 11.1 µM | U-251 14.9 µM | UO-31 12.9 µM

CCOC(=O)c1c(N)sc2c1C(C)(C(=O)OCC)CC2 (stereo not drawn)
inactive: RPMI-8226 78.5 µM | SK-MEL-5 > 100 µM | SNB-75 88.3 µM | SNB-19 > 100 µM | HCC 2998 > 100 µM | KM12 > 100 µM | SK-MEL-2 > 100 µM | ACHN > 100 µM | SW-620 > 100 µM | MCF7 > 100 µM | MOLT-4 74.5 µM | BT-549 > 100 µM | UACC-257 > 100 µM | HOP-92 58.3 µM | U-251 > 100 µM | UO-31 63.8 µM

N#CC(C#N)=C1SCC(=O)CS1
inactive: CAKI-1 > 100 µM | RPMI-8226 > 100 µM | SK-MEL-5 > 100 µM | SNB-75 89.1 µM | SNB-19 > 100 µM | HCC 2998 > 100 µM | KM12 > 100 µM | OVCAR-4 > 100 µM | SW-620 > 100 µM | MOLT-4 > 100 µM | UACC-257 > 100 µM | HOP-92 > 100 µM | U-251 > 100 µM | UO-31 > 100 µM

CCOC(=O)C(=CNc1ccc(N(C2=NCC(C)S2)c2ccc(F)c(Cl)c2)cc1)C(=O)OCC (stereo not drawn)
inactive: CAKI-1 39.2 µM | RPMI-8226 21.3 µM | SK-MEL-5 18.7 µM | SNB-75 20.4 µM | SNB-19 21.8 µM | HCC 2998 15.2 µM | KM12 18.7 µM | OVCAR-4 24.8 µM | SK-MEL-2 20.4 µM | ACHN 18.5 µM | SW-620 20.8 µM | MCF7 12.8 µM | MOLT-4 19.1 µM | DU-145 17.6 µM | UACC-257 17.1 µM | HOP-92 18.1 µM | U-251 20.8 µM | UO-31 18.1 µM

C=Cc1c(-c2ccccc2)cnc2[nH]c3ccccc3c12
inactive: CAKI-1 > 50 µM | RPMI-8226 > 50 µM | SK-MEL-5 > 50 µM | SNB-75 6.59 µM | SNB-19 > 50 µM | HCC 2998 > 50 µM | KM12 2.43 µM | OVCAR-4 > 50 µM | SK-MEL-2 > 50 µM | ACHN > 50 µM | SW-620 > 50 µM | MOLT-4 > 50 µM | UACC-257 > 50 µM | U-251 > 50 µM | UO-31 > 50 µM

O=NN(CC1(O)OCC(O)C(O)C1O)C(Cc1c[nH]c2ccccc12)C(=O)O (stereo not drawn)
inactive: RPMI-8226 > 100 µM | SK-MEL-5 > 100 µM | SNB-75 > 100 µM | HCC 2998 > 100 µM | KM12 > 100 µM | SK-MEL-2 > 100 µM | ACHN > 100 µM | SW-620 > 100 µM | MOLT-4 > 100 µM | UACC-257 > 100 µM | HOP-92 > 100 µM | U-251 > 100 µM | UO-31 > 10 µM

COc1ccccc1/C=C1\S/C(=N/Nc2nc(C)c(C(C)=O)s2)NC1=O
inactive: CAKI-1 57.3 µM | RPMI-8226 30.4 µM | SK-MEL-5 19.7 µM | SNB-75 24.5 µM | SNB-19 51.2 µM | HCC 2998 94.6 µM | KM12 38 µM | OVCAR-4 > 100 µM | SK-MEL-2 64.1 µM | ACHN 49.1 µM | SW-620 46.1 µM | MCF7 25.6 µM | MOLT-4 35.6 µM | DU-145 69.7 µM | UACC-257 49.8 µM | HOP-92 19.6 µM | U-251 33.7 µM | UO-31 37.2 µM

CC(=O)N1CN2C(=O)CCC2c2ccccc21 (stereo not drawn)
inactive: CAKI-1 > 100 µM | RPMI-8226 > 100 µM | SK-MEL-5 > 100 µM | SNB-75 > 100 µM | SNB-19 > 100 µM | HCC 2998 > 100 µM | KM12 > 100 µM | OVCAR-4 > 100 µM | SK-MEL-2 > 100 µM | ACHN > 100 µM | SW-620 > 100 µM | MCF7 > 100 µM | MOLT-4 > 100 µM | DU-145 > 100 µM | UACC-257 > 100 µM | HOP-92 > 100 µM | U-251 > 100 µM | UO-31 > 100 µM

O=C1CSC(/C(=C/c2ccccc2)c2nc3ccccc3[nH]2)=N1
inactive: CAKI-1 > 100 µM | SK-MEL-5 19.7 µM | SNB-75 14.2 µM | SNB-19 25.9 µM | HCC 2998 > 100 µM | KM12 32.4 µM | OVCAR-4 > 100 µM | SK-MEL-2 58.2 µM | ACHN > 100 µM | SW-620 > 100 µM | MOLT-4 > 100 µM | UACC-257 > 100 µM | HOP-92 61.4 µM | U-251 23.3 µM | UO-31 > 100 µM

C[n+]1cccc2ccc(OC(=O)c3ccccc3)cc21
inactive: CAKI-1 > 100 µM | RPMI-8226 > 100 µM | SK-MEL-5 > 100 µM | SNB-75 > 100 µM | SNB-19 > 100 µM | KM12 > 100 µM | OVCAR-4 > 100 µM | SK-MEL-2 > 100 µM | ACHN > 100 µM | SW-620 > 100 µM | MCF7 > 100 µM | MOLT-4 > 100 µM | DU-145 > 100 µM | UACC-257 > 100 µM | HOP-92 > 100 µM | UO-31 > 100 µM

N#CCC(=O)N1CCCCCCC1
inactive: CAKI-1 > 100 µM | SK-MEL-5 > 100 µM | SNB-19 > 100 µM | HCC 2998 69.3 µM | KM12 76.4 µM | OVCAR-4 > 100 µM | SK-MEL-2 > 100 µM | ACHN > 100 µM | SW-620 5.87 µM | UACC-257 > 100 µM | U-251 > 100 µM | UO-31 > 100 µM

COc1cc2nn(-c3ccccc3)nc2c2nonc12
inactive: CAKI-1 > 100 µM | RPMI-8226 > 100 µM | SK-MEL-5 > 100 µM | SNB-75 > 100 µM | SNB-19 > 100 µM | HCC 2998 > 100 µM | KM12 > 100 µM | OVCAR-4 95.9 µM | SK-MEL-2 > 100 µM | ACHN > 100 µM | SW-620 > 100 µM | MOLT-4 > 100 µM | DU-145 > 100 µM | UACC-257 > 100 µM | UO-31 > 100 µM

O=C(NC12CC3CC(CC(F)(C3)C1)C2)c1ccccc1
inactive: RPMI-8226 > 100 µM | SNB-75 43.9 µM | SNB-19 > 100 µM | HCC 2998 > 100 µM | KM12 > 100 µM | SK-MEL-2 > 100 µM | ACHN > 100 µM | SW-620 > 100 µM | MOLT-4 > 100 µM | UACC-257 > 100 µM | HOP-92 > 100 µM | U-251 > 100 µM | UO-31 59.2 µM
